Measurements reported in patent US9181182B2, “S1P receptors modulators” (Akaal Pharma PTY LTD, priority 2008, dated 2015).

Tests used:
S1P3 human receptor = S1P3 human receptor (Homo sapiens (Human), UniProt Q99500); experiment: S1P3 calcium mobilization in CHO K1 cells; format: cell-based; settings: NA = Not Active
Protocol: (§1) Independently, selected compounds were evaluated for S1P1 and S1P3 agonistic activity. The S1P1 assay system was GTPgama-S35 binding in membranes from CHO K1 cells, expressing S1P1 human receptor. The S1P3 assay system was calcium mobilization in CHO K1 cells expressing S1P3 human receptor. […] Compounds were tested initially at a concentration of 10 μM.

S1P1 human receptor = S1P1 human receptor (Homo sapiens (Human), UniProt P21453); experiment: S1P1 [35S]-GTPgamaS binding assay (agonist activity); format: biochemical; settings: for EC50: GTPgamaS binding, agonist; for Efficacy (% of maximum): S1P1, relative to reference agonist S1P; for EC50S1P1/EC50S1P: potency at S1P1 relative to S1P
Protocol: Selected Compounds of the Examples were evaluated at Millipore Corporation, USA, using S1P1 receptor; [^35S]-GTPgamaS binding assay. A [^35S]-GTPgamaS binding assay at Millipore was conducted by GPCR Profiler™ Custom Service Laboratory, Temecula, Calif., Millipore, Inc. to monitor dose-dependent agonist selectivity for selected Examples against the S1P1 receptors. The assay was completed with sample compounds subjected to an eight-point, four-fold dose response curve with starting concentration of 10 μM. Selectivity was determined upon initial addition of compounds followed by a 30 minute incubation at 30° C. Following compound incubation, bounded [^35S]-GTPgamaS was determined by filtration and scintillation counting.
as §1

[1] = test system: Human promyelocytic leukemia (HL-60) cells; experiment: Cell viability (growth inhibition) assay, MTS; format: cell-based; settings: Homo sapiens, 50% reduction in cell viability of HL-60 cells, 48 hr incubation
Protocol: In order to measure the apoptotic effect of compounds on the metabolic activity of viable cells, the following assay was performed on Human promyelocytic leukemia cells. The assay utilises the tetrazolium compound (3-(4,5-dimethylthiazol-2-yl)-5-(3-carboxymethoxyphenyl)-2-(4-sulfophenyl)-2H-tetrazolium, inner salt; (MTS) and an electron coupling reagent (phenazine methosulfate; (PMS). MTS is bioreduced by cells into a formazan product the optical absorbance of which is measured directly from 96 well assay plates. The conversion of MTS into aqueous, soluble formazan is accomplished by dehydrogenase enzymes found in metabolically active cells. The quantity of formazan product as measured by the amount of 490 nm absorbance is directly proportional to the number of living cells in culture.
The assay was based on the National Cancer Institute (NCI) protocol, briefly, cells were grown in RPMI 1640 media supplemented with 10% FCS (foetal calf serum) and kept at 37° C. in a humidified environment with 5% CO2.
For the growth inhibition assay, Human promyelocytic leukemia (HL-60) cells were seeded at a density of 10,000 cells per well in 96 well plates in a volume of 100 μl and allowed to grow for 24 h. Compounds were serially diluted in DMSO at concentrations 100 fold higher than used in the assay (100×). Compounds were freshly prepared for each experiment. The 100× stocks were then diluted to 2× stocks into media and immediately, 100 μl of this 2× stock was added to the cells to create the desired final concentration of drug with a DMSO concentration of 1%. One row of each 96 well plate was treated with DMSO alone as a control. Cells were then incubated for a further 48 hr. Metabolic activity was determined using MTS (Promega) (90% 1.6 mg/ml MTS, 10% 1.6 mg/ml PMS (phenazine methosulfate) made fresh in PBS). 50 μl of this mix was added to all wells of the plates and allowed to incubate for 1.5-2 hr. Plates were shaken gently for about 15 min and absorbance was read on a plate reader at 490 nm. Averages were taken of the readings at each point with standard deviation and plotted using MicroCal Origin.

female BALB/c mice = experiment: Lymphopenia assay; format: in vivo
Protocol: The study was performed to determine the ability of the compounds of the invention to induce lymphopenia in female BALB/c mice. On day 0, 27 female BALB/c mice were randomised based on body weight into nine groups of three mice each. Animals received a single i.p. administration of Test compounds and blood was collected by cardiac puncture either 6 or 24 h after administration. […] Changes to other haematological parameters were not observed.

[2] = 3 mg/kg and 30 mg/kg single i.p., 6 and 24 h, compared to untreated animals

S1P1 human receptor, sequence (P21453 whole entry): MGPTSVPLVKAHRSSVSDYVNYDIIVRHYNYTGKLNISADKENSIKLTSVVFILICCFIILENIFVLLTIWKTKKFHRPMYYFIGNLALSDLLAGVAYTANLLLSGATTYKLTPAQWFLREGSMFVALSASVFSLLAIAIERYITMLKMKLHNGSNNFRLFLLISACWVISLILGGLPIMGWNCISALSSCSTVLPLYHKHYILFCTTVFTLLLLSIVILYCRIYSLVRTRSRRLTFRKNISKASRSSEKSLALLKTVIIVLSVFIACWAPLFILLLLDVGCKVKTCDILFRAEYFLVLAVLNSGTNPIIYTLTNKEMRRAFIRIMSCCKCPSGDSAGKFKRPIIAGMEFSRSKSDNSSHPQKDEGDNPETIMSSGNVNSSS
S1P3 human receptor, sequence (Q99500 whole entry): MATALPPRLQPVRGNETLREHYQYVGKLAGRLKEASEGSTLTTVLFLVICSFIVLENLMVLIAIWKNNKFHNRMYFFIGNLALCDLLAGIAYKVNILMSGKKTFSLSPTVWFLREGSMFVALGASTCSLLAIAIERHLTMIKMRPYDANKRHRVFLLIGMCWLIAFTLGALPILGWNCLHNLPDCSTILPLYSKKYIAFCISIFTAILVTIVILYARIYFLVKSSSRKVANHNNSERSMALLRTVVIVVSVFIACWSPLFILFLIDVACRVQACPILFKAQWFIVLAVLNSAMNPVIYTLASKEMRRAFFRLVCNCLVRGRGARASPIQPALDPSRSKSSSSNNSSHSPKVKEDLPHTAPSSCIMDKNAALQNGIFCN

EC50 (S1P3 human receptor) [nM]	EC50 (S1P1 human receptor) [nM]	Efficacy (% of maximum) (S1P1 human receptor) [%]	EC50S1P1/EC50S1P (S1P1 human receptor)	IC50 [1] [nM]	Changes to other haematological parameters (female BALB/c mice; single i.p., 6 or 24 h)	Structure (SMILES)	lymphocyte counts (female BALB/c mice; [2])	total white blood cell counts (female BALB/c mice; [2])
1290	6.8	92	0.4	1820 ± 500	not observed	CCOc1ccc(-c2nc(-c3cccc4c3CCN4CC(N)(CO)CO)no2)cc1OCC [Example 34, 2-Amino-2-((4-(5-(3,4-diethoxyphenyl)-1,2,4-oxadiazol-3-yl)indolin-1-yl)methyl)propane-1,3-diol]	decrease	decrease
> 15600	344	117	36.41	3100		CCOc1ccc(-c2nc(-c3ccc4c(c3)CCN4CC(N)(CO)CO)no2)cc1OCC [Example 40, 2-Amino-2-((5-(5-(3,4-diethoxyphenyl)-1,2,4-oxadiazol-3-yl)indolin-1-yl)methyl)propane-1,3-diol]		
